# Source: US20100216847A1, “N[…] THE TREATMENT OF PAIN” (UNIVERSITY OF KENTUCKY RESEARCH FOUNDATION, priority 2006, published 2010)
# Tests used:
# [1] = tested on: rodent model of nociceptive pain (tail-flick test); experiment: Tail-flick test after intraperitoneal administration; format: in vivo, rat; conditions: male Sprague-Dawley rats, 5 mg/kg IP single dose, perchlorate salt, vs saline, n=6; preliminary data
# Description: A study was performed to screen the analgesic activities of S(−) and R(+) enantiomers of nornicotine following administration by intraperitoneal route (IP) in a rodent model of nociceptive pain. The responses to acute thermal stimuli were determined using the tail-flick test [D′Amour F. E., Smith D. L. “A method for determining loss of pain sensation” J Pharmacol Exp Ther (1941), 72:74-79]. Tail-flick latency (TFL) was measured by recording the time from the onset of the heat stimulus to the tail to withdrawal of the tail from the heat source, using a standard tail-flick apparatus (EMDIE, Instrument Co., Roanoke, Va.). The sensitivity of the instrument was adjusted to provide an average baseline 2-3 seconds. Cut-off time of 10 s was used to avoid tail damage.
# A single dose [5 mg/kg in perch salt form (perchlorate)] of each nornicotine enantiomer was administered (IP) in 6 male rats [Sprague-Dawley; about 90 days old, 350 g, (Harlan, Indianapolis, Ind.)]. Saline (vehicle, 1 ml/kg) served as control. TFL were determined prior to (twice, 15 min apart) and at 5, 15, 30, 45 and 60 min after i.p. administration. Data were presented as time courses of TFL (normalized for pre-injection baseline, s) [FIG. 1A] and areas under the curves (AUC0-60min) [FIG. 1B].
# [2] = tested on: rodent model of chronic inflammatory pain (formalin test); experiment: Formalin test (intra-plantar formalin) after intraperitoneal administration; format: in vivo, rat; conditions: male rats, 5 mg/kg IP fumarate salt, 15 min prior to formalin, n=6; for formalin-induced flinching, late (tonic) phase 20-60 min: significantly different from saline P<0.05
# Description: A study was performed to screen the analgesic activities of S(−) and R(+) enantiomers of nornicotine following administration by intraperitoneal route (IP) in a rodent model of chronic inflammatory pain (formalin test). Intra-plantar injection of formalin produces a biphasic behavioral response consisting of flinching, lifting and licking behaviors in rodents. The first phase (acute, 0-20 min) results from direct stimulation of nociceptors (nociceptive pain) whereas the second phase (tonic, 20-60 min) involves central sensitization (a characteristic of neuropathic pain). Accordingly, the formalin test was used to determine the analgesic effects of S(−)- and R(+)-nornicotine [Wheeler-Aceto H., Covan A. “Standardization of the rat formalin test for the evaluation of analgesics” Psychopharmacology (1991) 104:35-44]. Formalin (50 mcl) was injected subcutaneously (SC) into the dorsal surface of the hind paw. The rat was placed in a Plexiglas cage and the intensity of pain (number of formalin-induced flinches) was rated in 5 min intervals for 60 min.
# A single dose [5 mg/kg in salt form (fumarate)] of each nornicotine enantiomer and saline (control) was administered (IP) 15 min prior to formalin (SC) injection in 6 male rats. Data were presented as time courses of formalin-induced flinches (number) for S(−)-nornicotine, R(+)-nornicotine and saline [FIG. 4A] and areas under the curves (AUC) calculated for phase 1 (acute, 0-20 min) [FIG. 4B] and phase 2 (tonic, 20-60 min) [FIG. 4C].
# [3] = tested on: rodent model of nociceptive pain (tail-flick test); experiment: Tail-flick test after intrathecal administration; format: in vivo, rat; conditions: male rats, 10 mcg IT single dose, perchlorate salt, n=5, P<0.05 post-hoc SNK
# Description: A study was performed to screen the analgesic activities of S(−) and R(+) enantiomers of nornicotine following administration by intrathecal route (IT) in a rodent model of nociceptive pain (tail-flick test).
# In order to inject these drugs via the IT route chronic catheterization of the spinal subarachnoid space was performed in rats [Yaksh T., Rudy T. “Chronic catheterization of the spinal subarachnoid space” Physiol Behav (1976) 17:1031-1036 (with minor modification)]. Briefly, a 21 cm long P-10 polyethylene tubing (volume 10 mcl) which extended 8.5 cm beyond an incision in the atlanto-occipital membrane was secured to the scull with acrylic cement. The catheter rested in the vicinity of T-12 at the rostral face of the lumbar cord enlargement. The studies were initiated 1 week after implantation of the IT catheter.
# A single dose [10 mcg in perch salt form (perchlorate)] of each enantiomer was administered (IT) in 5 male rats. Saline (vehicle; 10 mcl) was used as control. The responses to acute thermal stimuli were determined using the tail-flick test (baseline 2-3 seconds, cut-off 10 seconds). TFL were measured prior to (twice, 15 min apart) and at 5, 10, 15, 30, 45 and 60 min after IT administration. Data were presented as time courses of TFL (normalized for pre-injection baseline, s) [FIG. 2A] and areas under the curves (AUC0-60min) [FIG. 2B].
# [4] = tested on: rodent model of nociceptive pain (paw withdrawal test); experiment: Thermal paw withdrawal test after intraperitoneal administration; format: in vivo, rat; conditions: male rats, 2.5, 5 and 10 mg/kg IP, free base, n=8; P<0.05 1-way ANOVA
# Description: To further characterize the analgesic properties of S(−)nornicotine, a dose-response relationship was determined. Responsiveness to acute thermal noxious stimuli was assessed by a thermal paw withdrawal test [Hargreaves K. et al., “A new sensitive method for measuring thermal nociception in cutaneous hyperalgesia” Pain (1988) 32:77-88]. This test, which uses a ramp heat stimulus on the plantar surface of the paw, appears to generate more consistent analgesic responses to nicotinic drugs as compared to tail flick test. Plantar Stimulator Analgesia Meter (11TC, Life Science, Woodland Hills, Calif.) was used. Briefly, the rat was placed in a clear plastic chamber and allowed to acclimate for 5 min. After the acclimation period, the radiant heat was positioned under the glass floor directly beneath the plantar hind paw. The heat source activated a timer that was controlled by a photocell. The hind paw withdrawal interrupted the photocell and automatically stopped the timer. Latency to paw withdrawal (PWL) was measured to the nearest 0.1 s. […]
# S(−)-Nornicotine was administered in three doses (2.5, 5 and 10 mg/kg in form of free base) via the IP route in 8 male rats. […] Responses (PWL, s) were measured prior to and at 5, 10, 15, 30, and 60 min after IP injection. For each rat and at each time point, response was normalized for baseline measured on the day of experiment. […]
# [5] = humans; cited from earlier work
# [6] = following peripheral administration of nicotine; cited from earlier work
# [7] = in vivo; cited from earlier work
# [8] = following repeated nicotine dosing; cited from earlier work
Compound,"analgesic effect (tail-flick latency, AUC0-60min) [1]","formalin-induced flinching, early (acute) phase 0-20 min [2]","formalin-induced flinching, late (tonic) phase 20-60 min [2]","analgesic effect (tail-flick latency, AUC0-60min) vs the other enantiomer [3]","analgesic effect (tail-flick latency, AUC0-60min) vs saline ([3]; preliminary data)","analgesic effect (paw withdrawal latency, AUC0-60min vs log dose) [4]",potency and toxicity profile compared to R(+)-nornicotine (Dose escalation studies),plasma half-life [5] [h],residence in the rat's brain [6] [min],oral bioavailability [7] [%],accumulation in brain compared to nicotine [8],oral bioavailability (in words) [7]
c1cncc([C@H]2CCCN2)c1 [R(+)-nornicotine],less pronounced,Neither enantiomer had significant effect,attenuated formalin-induced flinching,,,,,,,,,
c1cncc([C@@H]2CCCN2)c1 [S(−)-nornicotine],significantly greater as compared to saline,Neither enantiomer had significant effect,attenuated formalin-induced flinching,significantly greater as compared to R(+)-nornicotine,significantly greater as compared to saline,significantly related to dose,more favorable potency and toxicity profile,,,,,
"CN1CCCC1c1cccnc1 (centres unmarked) [nicotine, reference compound]",,,,,,,,1,52,10,,
Nornicotine,,,,,,,,8,166,,about 4 fold,good oral bioavailability
